Assay results taken from patent publication US11981658B2, “Substituted aminopyridine compounds as EGFR inhibitors” (YUHAN CORPORATION, priority 2021, dated 2024).
Read-outs that look alike come from different tables or passages of the source.

Key:
[1] = biological target: EGFR Del19/T790M/C797S (Homo sapiens, UniProt P00533, C797S/DEL746-750/T790M); experiment: Biochemical EGFR kinase inhibition assay (Lance Ultra TR-FRET), triple mutant del19/T790M/C797S
How it was run: (§1)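 In this biochemical assay, phosphorylation after a one-hour room-temperature reaction was detected with europium-labelled anti-phosphopeptide antibody at 2 nM final concentration.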

[2] = biological target: EGFR Del19/C797S (Homo sapiens, UniProt P00533, C797S/DEL746-750); experiment: Biochemical EGFR kinase inhibition assay (Lance Ultra TR-FRET), double mutant del19/C797S
How it was run: as §1

[3] = biological target: EGFR L858R/T790M/C797S (Homo sapiens, UniProt P00533, C797S/L858R/T790M); experiment: Biochemical EGFR kinase inhibition assay (Lance Ultra TR-FRET), triple mutant L858R/T790M/C797S
How it was run: as §1

[4] = biological target: EGFR wildtype (WT) (Homo sapiens, UniProt P00533); experiment: Biochemical EGFR kinase inhibition assay (Lance Ultra TR-FRET), wildtype
How it was run: as §1

[5] = biological target: EGFR L858R/C797S (Homo sapiens, UniProt P00533, C797S/L858R); experiment: Biochemical EGFR kinase inhibition assay (Lance Ultra TR-FRET), double mutant L858R/C797S
How it was run: as §1

[6] = IC50 Del19/T790M/C797S (nM), 100 μM ATP
[7] = Km ATP, read-out: IC50 Del19/T790M/C797S (nM) Km ATP
[8] = IC50 Del19/C797S (nM), 100 μM ATP
[9] = Km ATP, read-out: IC50 Del19/C797S (nM) Km ATP
[10] = IC50 L858R/T790M/C797S (nM), 100 μM ATP
[11] = Km ATP, read-out: IC50 L858R/T790M/C797S (nM) Km ATP
[12] = Km ATP, read-out: IC50 WT (nM) Km ATP
[13] = IC50 L858R/C797S (nM), 100 μM ATP
[14] = Km ATP, read-out: IC50 L858R/C797S (nM) Km ATP

Sequence of EGFR wildtype (WT) (P00533 25-1210): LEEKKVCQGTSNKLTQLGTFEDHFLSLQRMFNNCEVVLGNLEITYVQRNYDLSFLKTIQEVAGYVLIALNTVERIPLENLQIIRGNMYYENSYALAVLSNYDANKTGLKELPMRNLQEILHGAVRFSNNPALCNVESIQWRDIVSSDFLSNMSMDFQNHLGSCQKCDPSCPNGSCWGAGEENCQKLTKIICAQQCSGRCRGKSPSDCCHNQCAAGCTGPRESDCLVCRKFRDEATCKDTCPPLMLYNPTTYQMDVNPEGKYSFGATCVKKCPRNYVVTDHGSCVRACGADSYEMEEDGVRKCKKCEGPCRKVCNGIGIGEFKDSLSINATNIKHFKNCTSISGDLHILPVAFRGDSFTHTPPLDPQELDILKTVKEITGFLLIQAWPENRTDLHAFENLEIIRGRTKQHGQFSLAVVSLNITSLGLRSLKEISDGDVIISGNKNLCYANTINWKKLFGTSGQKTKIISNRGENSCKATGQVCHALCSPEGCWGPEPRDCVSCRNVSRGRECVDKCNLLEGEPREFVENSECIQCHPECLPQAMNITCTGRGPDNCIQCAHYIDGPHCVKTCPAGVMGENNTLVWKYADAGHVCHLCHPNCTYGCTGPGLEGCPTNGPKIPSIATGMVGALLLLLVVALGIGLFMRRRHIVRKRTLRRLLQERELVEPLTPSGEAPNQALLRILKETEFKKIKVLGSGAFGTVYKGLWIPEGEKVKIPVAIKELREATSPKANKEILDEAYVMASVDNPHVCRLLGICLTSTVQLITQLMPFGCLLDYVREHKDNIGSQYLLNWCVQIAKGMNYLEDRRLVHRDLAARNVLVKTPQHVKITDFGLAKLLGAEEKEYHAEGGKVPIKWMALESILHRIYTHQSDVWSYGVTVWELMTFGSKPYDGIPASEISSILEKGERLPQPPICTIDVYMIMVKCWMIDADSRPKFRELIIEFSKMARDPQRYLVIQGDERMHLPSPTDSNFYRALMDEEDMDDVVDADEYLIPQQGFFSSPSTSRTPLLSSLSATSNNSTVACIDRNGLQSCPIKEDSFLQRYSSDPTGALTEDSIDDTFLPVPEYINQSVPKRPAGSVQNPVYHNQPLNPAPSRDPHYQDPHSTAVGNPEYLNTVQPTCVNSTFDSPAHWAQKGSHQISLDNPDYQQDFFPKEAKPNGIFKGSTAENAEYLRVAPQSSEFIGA
Sequence of EGFR L858R/T790M/C797S (P00533 25-1210 T790M/C797S/L858R): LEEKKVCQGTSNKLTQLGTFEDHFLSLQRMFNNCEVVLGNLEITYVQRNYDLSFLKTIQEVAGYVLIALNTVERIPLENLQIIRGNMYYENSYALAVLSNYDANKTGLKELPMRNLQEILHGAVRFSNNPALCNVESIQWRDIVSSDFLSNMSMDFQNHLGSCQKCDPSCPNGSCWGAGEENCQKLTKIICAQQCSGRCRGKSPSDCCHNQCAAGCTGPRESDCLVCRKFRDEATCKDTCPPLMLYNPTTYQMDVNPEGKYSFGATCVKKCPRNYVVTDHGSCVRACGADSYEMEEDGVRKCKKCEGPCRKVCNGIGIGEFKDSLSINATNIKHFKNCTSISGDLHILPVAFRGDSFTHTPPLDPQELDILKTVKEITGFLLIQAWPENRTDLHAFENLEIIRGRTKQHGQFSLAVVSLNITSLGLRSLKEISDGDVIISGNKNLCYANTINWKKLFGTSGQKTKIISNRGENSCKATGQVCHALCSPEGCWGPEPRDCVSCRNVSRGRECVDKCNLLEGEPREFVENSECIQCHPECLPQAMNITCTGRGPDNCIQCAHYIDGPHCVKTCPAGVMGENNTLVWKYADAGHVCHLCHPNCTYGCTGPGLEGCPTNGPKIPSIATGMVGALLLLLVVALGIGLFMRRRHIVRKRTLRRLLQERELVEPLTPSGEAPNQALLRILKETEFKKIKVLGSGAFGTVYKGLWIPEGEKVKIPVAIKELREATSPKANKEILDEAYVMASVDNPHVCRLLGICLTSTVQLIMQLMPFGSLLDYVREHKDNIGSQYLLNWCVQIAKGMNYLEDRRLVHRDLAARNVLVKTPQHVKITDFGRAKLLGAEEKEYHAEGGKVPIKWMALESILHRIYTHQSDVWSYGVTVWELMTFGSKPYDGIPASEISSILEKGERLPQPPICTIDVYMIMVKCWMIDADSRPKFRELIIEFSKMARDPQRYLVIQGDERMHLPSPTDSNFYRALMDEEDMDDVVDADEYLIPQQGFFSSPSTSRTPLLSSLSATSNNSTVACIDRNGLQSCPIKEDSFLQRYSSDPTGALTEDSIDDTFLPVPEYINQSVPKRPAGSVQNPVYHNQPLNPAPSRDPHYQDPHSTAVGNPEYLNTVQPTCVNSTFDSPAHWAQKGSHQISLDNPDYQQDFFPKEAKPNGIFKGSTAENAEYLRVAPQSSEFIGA
Sequence of EGFR Del19/T790M/C797S (P00533 with tags, fused parts or gaps DEL746-750/T790M/C797S): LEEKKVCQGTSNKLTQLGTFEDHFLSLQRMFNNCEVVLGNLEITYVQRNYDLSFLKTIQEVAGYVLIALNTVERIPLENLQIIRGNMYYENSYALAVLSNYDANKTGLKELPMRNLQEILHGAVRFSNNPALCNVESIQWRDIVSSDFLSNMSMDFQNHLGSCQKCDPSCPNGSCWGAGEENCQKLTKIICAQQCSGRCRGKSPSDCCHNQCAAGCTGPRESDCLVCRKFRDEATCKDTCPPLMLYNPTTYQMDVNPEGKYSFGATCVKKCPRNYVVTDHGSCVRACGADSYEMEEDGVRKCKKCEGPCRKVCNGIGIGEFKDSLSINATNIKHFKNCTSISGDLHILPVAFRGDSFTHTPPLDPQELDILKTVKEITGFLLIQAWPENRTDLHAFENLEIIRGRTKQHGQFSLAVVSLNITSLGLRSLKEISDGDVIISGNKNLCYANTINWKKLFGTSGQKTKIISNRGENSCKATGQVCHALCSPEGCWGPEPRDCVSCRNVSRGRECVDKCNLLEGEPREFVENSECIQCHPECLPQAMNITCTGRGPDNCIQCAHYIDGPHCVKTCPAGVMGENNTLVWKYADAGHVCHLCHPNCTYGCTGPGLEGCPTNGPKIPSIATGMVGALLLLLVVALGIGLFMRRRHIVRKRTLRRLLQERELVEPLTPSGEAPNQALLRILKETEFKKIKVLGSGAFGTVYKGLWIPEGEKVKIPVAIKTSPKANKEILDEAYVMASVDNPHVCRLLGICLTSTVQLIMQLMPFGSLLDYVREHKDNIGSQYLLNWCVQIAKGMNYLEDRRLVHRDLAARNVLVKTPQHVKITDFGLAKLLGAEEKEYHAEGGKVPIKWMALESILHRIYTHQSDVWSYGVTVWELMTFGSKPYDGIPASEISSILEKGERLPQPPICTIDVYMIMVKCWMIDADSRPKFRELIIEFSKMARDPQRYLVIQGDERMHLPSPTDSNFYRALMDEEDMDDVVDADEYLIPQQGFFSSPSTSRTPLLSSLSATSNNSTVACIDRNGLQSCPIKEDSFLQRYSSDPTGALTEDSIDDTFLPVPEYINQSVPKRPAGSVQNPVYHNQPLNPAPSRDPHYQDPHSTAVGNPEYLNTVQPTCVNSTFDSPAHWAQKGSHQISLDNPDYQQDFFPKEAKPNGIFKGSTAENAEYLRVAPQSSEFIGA
Sequence of EGFR L858R/C797S (P00533 25-1210 C797S/L858R): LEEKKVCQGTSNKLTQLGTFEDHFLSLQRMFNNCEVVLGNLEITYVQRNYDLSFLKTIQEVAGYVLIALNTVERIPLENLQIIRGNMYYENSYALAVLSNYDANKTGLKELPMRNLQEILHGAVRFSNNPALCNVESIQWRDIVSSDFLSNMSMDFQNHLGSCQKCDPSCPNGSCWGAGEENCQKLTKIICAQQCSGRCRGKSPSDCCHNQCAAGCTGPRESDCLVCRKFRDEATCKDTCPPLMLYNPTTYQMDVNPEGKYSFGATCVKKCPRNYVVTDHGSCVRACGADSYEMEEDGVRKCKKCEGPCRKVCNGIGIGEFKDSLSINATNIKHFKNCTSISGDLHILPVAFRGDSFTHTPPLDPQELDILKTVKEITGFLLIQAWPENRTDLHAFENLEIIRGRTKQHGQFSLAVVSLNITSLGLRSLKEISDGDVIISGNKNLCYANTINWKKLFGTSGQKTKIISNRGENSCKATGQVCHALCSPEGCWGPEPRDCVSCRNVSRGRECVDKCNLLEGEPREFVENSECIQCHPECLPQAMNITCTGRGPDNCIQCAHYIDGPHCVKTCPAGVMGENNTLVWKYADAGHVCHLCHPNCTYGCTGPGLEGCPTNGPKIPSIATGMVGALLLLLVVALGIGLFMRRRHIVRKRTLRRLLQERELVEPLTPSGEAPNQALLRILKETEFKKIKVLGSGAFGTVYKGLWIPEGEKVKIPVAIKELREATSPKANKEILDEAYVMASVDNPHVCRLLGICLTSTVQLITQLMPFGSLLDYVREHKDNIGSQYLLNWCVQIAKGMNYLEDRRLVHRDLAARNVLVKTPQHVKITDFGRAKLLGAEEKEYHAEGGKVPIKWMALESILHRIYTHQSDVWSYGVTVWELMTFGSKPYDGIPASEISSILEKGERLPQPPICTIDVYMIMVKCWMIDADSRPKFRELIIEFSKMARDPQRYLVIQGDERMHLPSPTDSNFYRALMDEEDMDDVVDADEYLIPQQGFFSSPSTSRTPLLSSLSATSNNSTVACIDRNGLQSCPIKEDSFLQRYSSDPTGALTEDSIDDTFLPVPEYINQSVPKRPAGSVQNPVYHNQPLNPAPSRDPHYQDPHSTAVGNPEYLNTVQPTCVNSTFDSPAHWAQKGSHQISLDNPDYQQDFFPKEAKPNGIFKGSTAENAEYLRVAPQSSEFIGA

Row | Structure (SMILES) | IC50 [1, 6] [nM] | IC50 [1, 7] [nM] | IC50 [2, 8] [nM] | IC50 [2, 9] [nM] | IC50 [3, 10] [nM] | IC50 [3, 11] [nM] | IC50 ([4]; IC50 WT (nM), 100 μM ATP) [nM] | IC50 [4, 12] [nM] | IC50 [5, 13] [nM] | IC50 [5, 14] [nM]
1 | Cn1cc(C#Cc2cnc(Nc3ccnc(-c4cnn(S(=O)(=O)C5CC5)c4)n3)cc2N2CCC3(CCNC3=O)CC2)cn1 [Example 79, 8-(2-((2-(1-(Cyclopropylsulfonyl)-1H-pyrazol-4-yl)pyrimidin-4-yl)amino)-5-((1-methyl-1H-pyrazol-4-yl)ethynyl)pyridin-4-yl)-2,8-diazaspiro[4.5]decan-1-one] | 0.3 | 0.2 | 1.3 | 1.3 | 0.8 | 0.1 | 7190 | 6.1 | 17.8 | 1.2
2 | Cn1cc(C#Cc2cnc(Nc3ccnc(-c4cnn(S(=O)(=O)C5CC5)c4)n3)cc2N[C@H]2CC[C@@H](NCCF)CC2)cn1 [Example 80, N^2-(2-(1-(Cyclopropylsulfonyl)-1H-pyrazol-4-yl)pyrimidin-4-yl)-N^4-((1s, 4s)-4-((2-fluoroethyl)amino)cyclohexyl)-5-((1-methyl-1H-pyrazol-4-yl)ethynyl)pyridine-2,4-diamine] | 0.6 | 0.5 | 16.1 | 12.3 | 1.9 | 0.5 | > 10000 | 80.1 | 137 | 16.4
3 | Cn1cc(C#Cc2cnc(Nc3ccnc(-c4cnn(S(=O)(=O)C5CC5)c4)n3)cc2N[C@H]2CC[C@@](C)(O)CC2)cn1 [Example 81, (1s,4s)-4-((2-((2-(1-(Cyclopropylsulfonyl)-1H-pyrazol-4-yl)pyrimidin-4-yl)amino)-5-((1-methyl-1H-pyrazol-4-yl)ethynyl)pyridin-4-yl)amino)-1-methylcyclohexan-1-ol] | 0.3 | 0.3 | 5.8 | 7.7 | 0.4 | 0.2 | > 10000 | 61.6 | 79.1 | 5.3
4 | O=S(=O)(C1CC1)n1cc(-c2nccc(Nc3cc(N4CCC(O)CC4)c(C#Cc4cnn(C5CC5(F)F)c4)cn3)n2)cn1 (centres unmarked) [Example 82, 1-(2-((2-(1-(Cyclopropylsulfonyl)-1H-pyrazol-4-yl)pyrimidin-4-yl)amino)-5-((1-(2,2-difluorocyclopropyl)-1H-pyrazol-4-yl)ethynyl)pyridin-4-yl)piperidin-4-ol] | 0.6 | – | 3.5 | – | 1.8 | – | > 10000 | – | 22.8 | –
5 | O=S(=O)(C1CC1)n1cc(-c2nccc(Nc3cc(N4CCC(CO)CC4)c(C#Cc4cnn(C5CC5(F)F)c4)cn3)n2)cn1 (centres unmarked) [Example 83, (1-(2-((2-(1-(Cyclopropylsulfonyl)-1H-pyrazol-4-yl)pyrimidin-4-yl)amino)-5-((1-(2,2-difluorocyclopropyl)-1H-pyrazol-4-yl)ethynyl)pyridin-4-yl)piperidin-4-yl)methanol] | 1.3 | – | 4 | – | 2.5 | – | > 10000 | – | 24.4 | –
6 | O=S(=O)(C1CC1)n1cc(-c2nccc(Nc3cc(N4CCC(CCO)CC4)c(C#Cc4cnn(C5CC5(F)F)c4)cn3)n2)cn1 (centres unmarked) [Example 84, 2-(1-(2-((2-(1-(Cyclopropylsulfonyl)-1H-pyrazol-4-yl)pyrimidin-4-yl)amino)-5-((1-(2,2-difluorocyclopropyl)-1H-pyrazol-4-yl)ethynyl)pyridin-4-yl)piperidin-4-yl)ethan-1-ol] | 3.3 | – | 7.2 | – | 6.7 | – | > 10000 | – | 33 | –
7 | O=S(=O)(C1CC1)n1cc(-c2nccc(Nc3cc(NC4CCC(O)CC4)c(C#Cc4cnn(C5CC5(F)F)c4)cn3)n2)cn1 (centres unmarked) [Example 85, (1s,4s)-4-((2-((2-(1-(Cyclopropylsulfonyl)-1H-pyrazol-4-yl)pyrimidin-4-yl)amino)-5-((1-(2,2-difluorocyclopropyl)-1H-pyrazol-4-yl)ethynyl)pyridin-4-yl)amino)cyclohexan-1-ol] | 1.8 | 1.8 | 7 | 3.5 | 3.5 | 1 | > 10000 | 114 | 50.8 | 3.1
8 | Cn1ncc(C#Cc2cnc(Nc3ccnc(-c4cnn(S(=O)(=O)C5CC5)c4)n3)cc2N2CCC(O)CC2)c1C1CC1 [Example 86, 1-(5-((5-Cyclopropyl-1-methyl-1H-pyrazol-4-yl)ethynyl)-2-((2-(1-(cyclopropylsulfonyl)-1H-pyrazol-4-yl)pyrimidin-4-yl)amino)pyridin-4-yl)piperidin-4-ol] | 1.4 | – | 23.9 | – | 6.4 | – | > 10000 | – | 73.9 | –
9 | Cn1ncc(C#Cc2cnc(Nc3ccnc(-c4cnn(S(=O)(=O)C5CC5)c4)n3)cc2N2CCC(CCO)CC2)c1C1CC1 [Example 87, 2-(1-(5-((5-Cyclopropyl-1-methyl-1H-pyrazol-4-yl)ethynyl)-2-((2-(1-(cyclopropylsulfonyl)-1H-pyrazol-4-yl)pyrimidin-4-yl)amino)pyridin-4-yl)piperidin-4-yl)ethan-1-ol] | 2.3 | – | 26.3 | – | 6.2 | – | > 10000 | – | 40.5 | –
10 | Cn1ncc(C#Cc2cnc(Nc3ccnc(-c4cnn(S(=O)(=O)C5CC5)c4)n3)cc2N[C@H]2CC[C@@H](O)CC2)c1C1CC1 [Example 88, (1s,4s)-4-((5-((5-Cyclopropyl-1-methyl-1H-pyrazol-4-yl)ethynyl)-2-((2-(1-(cyclopropylsulfonyl)-1H-pyrazol-4-yl)pyrimidin-4-yl)amino)pyridin-4-yl)amino)cyclohexan-1-ol] | 1.6 | – | 15.6 | – | 3.9 | – | > 10000 | – | 65 | –
11 | Cn1cc(C#Cc2cnc(Nc3ccnc(-c4cnn(S(=O)(=O)C5CC5)c4)n3)cc2N2CCC(O)CC2)c(C(F)(F)F)n1 [Example 89, 1-(2-((2-(1-(Cyclopropylsulfonyl)-1H-pyrazol-4-yl)pyrimidin-4-yl)amino)-5-((1-methyl-3-(trifluoromethyl)-1H-pyrazol-4-yl)ethynyl)pyridin-4-yl)piperidin-4-ol] | 4.3 | – | 63.8 | – | 19.6 | – | > 10000 | – | 183 | –
12 | Cn1cc(C#Cc2cnc(Nc3ccnc(-c4cnn(S(=O)(=O)C5CC5)c4)n3)cc2N2CCC(CO)CC2)c(C(F)(F)F)n1 [Example 90, (1-(2-((2-(1-(Cyclopropylsulfonyl)-1H-pyrazol-4-yl)pyrimidin-4-yl)amino)-5-((1-methyl-3-(trifluoromethyl)-1H-pyrazol-4-yl)ethynyl)pyridin-4-yl)piperidin-4-yl)methanol] | 3.6 | – | 28.5 | – | 11.8 | – | > 10000 | – | 37.2 | –
13 | Cn1cc(C#Cc2cnc(Nc3ccnc(-c4cnn(S(=O)(=O)C5CC5)c4)n3)cc2N2CCC(CCO)CC2)c(C(F)(F)F)n1 [Example 91, 2-(1-(2-((2-(1-(Cyclopropylsulfonyl)-1H-pyrazol-4-yl)pyrimidin-4-yl)amino)-5-((1-methyl-3-(trifluoromethyl)-1H-pyrazol-4-yl)ethynyl)pyridin-4-yl)piperidin-4-yl)ethan-1-ol] | 5.6 | – | 76.8 | – | 13.9 | – | > 10000 | – | 166 | –
14 | Cn1cc(C#Cc2cnc(Nc3ccnc(-c4cnn(S(=O)(=O)C5CC5)c4)n3)cc2N[C@H]2CC[C@@H](O)CC2)c(C(F)(F)F)n1 [Example 92, (1s,4s)-4-((2-((2-(1-(Cyclopropylsulfonyl)-1H-pyrazol-4-yl)pyrimidin-4-yl)amino)-5-((1-methyl-3-(trifluoromethyl)-1H-pyrazol-4-yl)ethynyl)pyridin-4-yl)amino)cyclohexan-1-ol] | 5.5 | – | 67.5 | – | 11.3 | – | > 10000 | – | 80.7 | –
15 | O=C1CCN(c2cc(Nc3ccnc(-c4cnn(S(=O)(=O)C5CC5)c4)n3)ncc2C#Cc2cnn(C3CCOCC3)c2)CC1 [Example 93, 1-(2-((2-(1-(Cyclopropylsulfonyl)-1H-pyrazol-4-yl)pyrimidin-4-yl)amino)-5-((1-(tetrahydro-2H-pyran-4-yl)-1H-pyrazol-4-yl)ethynyl)pyridin-4-yl)piperidin-4-one] | 2.2 | 1.9 | 64.8 | 43 | 18.2 | 2.5 | > 10000 | 260 | 372 | 18.3
16 | O=S(=O)(C1CC1)n1cc(-c2nccc(Nc3cc(N[C@H]4CC[C@@H](O)CC4)c(C#Cc4cnn(C5CCOCC5)c4)cn3)n2)cn1 [Example 94, (1s,4s)-4-((2-((2-(1-(Cyclopropylsulfonyl)-1H-pyrazol-4-yl)pyrimidin-4-yl)amino)-5-((1-(tetrahydro-2H-pyran-4-yl)-1H-pyrazol-4-yl)ethynyl)pyridin-4-yl)amino)cyclohexan-1-ol] | 2.1 | 2 | 8.8 | 6.7 | 3.6 | 1.4 | > 10000 | 32.3 | 30.5 | 4.3
